{"source": "patent US20220160703A1", "about": "“TUMOR-SELECTIVE COMBINATION THERAPY” (The Board of Regents of The University of Texas System, priority 2019, published 2022)", "key": {"[1]": {"test_system": "B16 cells stably harboring a pCMV-NQO1 expression vector", "assay": "Cell survival of NQO1 overexpressing B16 cells", "format": "cell-based, murine", "settings": "3 hr exposure, survival 48 hr later", "experimental": "(FIG. 1A) NQO1 positive tumor cell lines MC38, TC-1 and Ag104Ld and NQO1 negative cell lines Panc02 and B16 grown in 48-well plates were treated with β-lap (0-8 μM) for a 3 hr followed by washing and replacing medium. Cell viability was determined by Sulforhodamine B (SRB) Assay 4 days later. […] (FIG. 1C) MC38 cells with CRISPR-based NQO1 Knockout (MC38 NQO1KO #5) planted in 96-well plates were exposed to β-lap for 3 hr and cell survival was assessed 48 hr later. […] (FIG. 1E) MC38 cells were exposed to a lethal dose of β-lap (4 μM) for indicated times, then stained with 7-AAD and Annexin V followed by flow cytometry analysis. […] (FIG. 1H) MC38 and B16 NQO1 #1 cells were exposed to β-lap for a 3 hr. Catalase (1000 U/ml) was added and cell survival was assessed 48 hr later. […] Tumor growth was monitored twice a week.\nFIGS. 17A-I (related to FIGS. 1A-J). […] (FIG. 17A) NQO1 expression in different murine cancer cell lines was determined by western blotting assay. […] Cell viability was determined by Sulforhodamine B (SRB) Assay 48 hr later. […] Cell viability was determined by SRB Assay 48 hr later. […] Catalase (1000 U/ml) was added and cell viability was assessed 48 hr later. […] Tumor growth was monitored twice a week. […] Data are shown as mean±SEM. **P<0.01, ***P<0.001, ****P<0.0001 determined by unpaired student t-test (FIG. 17G) or two-way ANOVA (FIG. 17H and FIG. 17I). […]"}, "[2]": {"test_system": "TC-1 tumor", "assay": "TC-1 subcutaneous tumor model", "format": "in vivo", "experimental": "(FIG. 2A) MC38 cells were subcutaneously transplanted into C57BL/6 WT (n=5-6/group) and Rag1 KO mice (n=5/group), respectively. Tumor bearing mice were treated with β-lap (0.3 mg, i.t.) every other day for four times. […] (FIG. 2B) MC38 tumor bearing C57BL/6 mice (n=5/group) were treated with β-lap (0.3 mg, i.t.) every other day for four times. For CD8^+ T cell depletion, 200 μg of anti-CD8 antibodies were intraperitoneally injected four times at three days interval during the treatment. (FIG. 2C) TC-1 tumor bearing C57BL/6 mice (n=4-5/group) were treated with β-lap (0.1 mg, i.t.) for four times with or without anti-CD8 antibodies. […] (FIG. 2E) 2×10^6 A549 cells were subcutaneously injected into C57BL/6 Rag1^−/− mice (n=5/group for vehicle and β-lap; n=7/group for vehicle+OT-1 and β-lap+OT-1). 30 days later, the mice were i.v. adoptively transfected with 2×10^6 lymph node cells from OT-1 transgenic mice. On the following day, tumor-bearing mice were intratumorally treated with β-lap (0.2 mg) every other day for 4 times. (FIG. 2F) A549 cells were subcutaneously injected into NSG-SGM3 (n=5/group) or NSG-SGM3 harboring human CD34^+ hematopoietic stem cells (n=5/group for Hu-NSG vehicle; n=6/group for Hu-NSG β-lap). Tumor bearing mice were treated with β-lap (0.2 mg, i.t.) every other day for four times. Tumor growth was measured twice a week.\n(FIG. 15A) C57BL/6J WT or rag−/− mice (n=5/group) were inoculated subcutaneously (s.c.) with 6×10^5 MC38 cells and treated intratumorally (i.t.) with 0.15 mg of IB-DNQ or vehicle on day 10, day 12, day 14 and day 16. (FIG. 15B) C57BL/6J WT or rag−/− mice (n=5/group) were inoculated subcutaneously (s.c.) with 1×10^5 TC-1 cells and treated intratumorally (i.t.) with 0.15 mg of IB-DNQ or vehicle on day 10, day 12, day 14 and day 16. Tumor diameters were measured by calipers twice a week. Tumor volume is presented as mean±SD. *p<0.05, **p<0.01, ***P<0.001.\nFIGS. 17A-I (related to FIGS. 1A-J). […] (FIG. 17A) NQO1 expression in different murine cancer cell lines was determined by western blotting assay. […] (FIG. 17C) MC38 cells (NQO1 WT or KO) were treated with β-lap for 3 hr followed by washing and replacing fresh medium. Cell viability was determined by Sulforhodamine B (SRB) Assay 48 hr later. […] (FIG. 17E, FIG. 17F) B16 cells (NQO1 null or stable overexpression) were treated with β-lap with or without dicoumarol (DIC, 50 μM) for 3 hr followed by washing and replacing medium. Cell viability was determined by SRB Assay 48 hr later. […] Catalase (1000 U/ml) was added and cell viability was assessed 48 hr later. (FIG. 17H) C57BL/6 mice (n=5/group) were transplanted with TC-1 cells, and intratumorally treated with β-lap (0.1 or 0.3 mg) every other day for four times. Tumor growth was monitored twice a week. […] Data are shown as mean±SEM. **P<0.01, ***P<0.001, ****P<0.0001 determined by unpaired student t-test (FIG. 17G) or two-way ANOVA (FIG. 17H and FIG. 17I).\n6×10^5 MC38 or 8×10^5 MC38 NQO1 KO cells were subcutaneously transplanted into Rag1^−/−, C57BL/6, and NSG mice, respectively (n=5/group). Tumor-bearing mice were treated with IB-DNQ (12 mg/kg, i.t.) or 20% HPβCD (Vehicle) every other day for four times after tumor volumes reached to 50 mm^3."}}}
{"smiles": "CC1(C)CCC2=C(O1)c1ccccc1C(=O)C2=O", "note": "[β-lap, β-lapachone]", "values": [{"measurement": "response to β-lap (cell survival)", "setting": "[1]", "value": "sensitivity to β-lap"}, {"measurement": "tumor response in WT mice", "setting": "[2]; 3 doses of β-lap (0.3 mg i.t.)", "value": "tumor regression occurred"}, {"measurement": "tumor response in rag−/− mice", "setting": "[2]; 3 doses of β-lap (0.3 mg i.t.)", "value": "but not in adaptive immune-deficient rag^−/− mice"}, {"measurement": "antitumor efficacy in STING deficient mice", "setting": "[2]; β-lap 0.3 mg i.t.", "value": "significantly impaired the antitumor efficacy"}, {"measurement": "tumor growth", "setting": "[2]; β-lap 0.1 or 0.3 mg i.t. every other day four times", "value": "significant tumor suppression"}, {"measurement": "tumor growth inhibition with anti-CD8 antibody", "setting": "[2]; β-lap + anti-CD8 antibody versus β-lap alone", "value": "complete failure of tumor growth inhibition"}]}
